Each structure is given as a SMILES string.

Our source for the melting point values is a melting point compilation (Tetko et al.; mined from patent text by program, amines drawn as free bases though some values may be those of a salt).

In the case of `O=C(CC1CCNCC1)Nc1cccc(-c2ccnc3c(C(=O)c4cccs4)cnn23)c1`, the melting point (commonly the temperature of the solid-liquid transition) lay within 216 to 220 °C.

`C=C1CCC(C2OC(=O)NC2=O)CC1` (configuration not stated) returned a melting point of 63 to 64 °C. For `O=C(CCCCCC1(C(=O)O)CC1)CCCCCC1(C(=O)O)CC1` the value was 122 to 123 °C. For `CCCCCCCSc1nc(C)c(O)c(C)n1`, the melting point lay within 110 to 111 °C.

`Nc1ccccc1Nc1ccc(C(c2ccc(Nc3ccccc3N)cc2)(C(F)(F)F)C(F)(F)F)cc1` showed a melting point of 150 to 152 °C. The result for `CC(O)=C(C#N)C(=O)Nc1ccc(F)cc1` reads 165 to 166 °C; that for `COc1ccc(C2=NN(c3ccc(C(=O)Nc4ccc(-c5ccc(=O)[nH]n5)cc4)cc3)C(=O)[C@H]3CC=CC[C@@H]23)cc1OC` (relative stereo), 272 to 273 °C.

Molecule `COC(=O)c1ccc(Br)c(S(C)(=O)=O)c1` had a melting point of 148 to 149 °C. For `NC1=NC(c2cccc(Oc3ccccc3)c2)N(c2cccc(Cc3ccccc3)c2)C(N)=N1` (configuration not stated) the value was 165 to 167 °C. For `CC(=CS(N)(=O)=O)c1ccccc1` the value was 101 to 102 °C; for `CC(C)N(CCc1c[nH]c2cc(Cl)ccc12)Cc1cccc(OCC(F)(F)C(F)(F)F)c1`, 77 to 80.2 °C. For `COc1c(C)cccc1C(=O)O` the value was 70 to 75 °C; for `Cc1cc(C)c2cc(-c3ccccc3)c(N)nc2n1`, 191 to 195 °C. Regarding `Cc1ccc(C(=O)NN=C(N)CS(=O)(=O)c2ccccc2)o1`, the melting point lay in the range of 219 to 220 °C. In the case of `Fc1ccc2[nH]cc(C3=CCC4(CC3)OCCO4)c2c1`, the melting point was 153 to 155 °C. For `CCCCCCCCCCCCCCCCCCOc1ccc(OCc2ccccc2)c(C(=O)OC)c1` the value was 52 to 54 °C; for `O=C1NC(c2ccccc2)c2cc(Cl)ccc2-n2nc(CO)cc21` (configuration not stated), 260 to 262 °C.

In turn, `O=C(O)c1cc(OCCCCCCc2cccc(OCc3ccccc3)c2OCc2ccccc2)ccc1O` returned a melting point of 97 to 100 °C. As to `CC(=O)C=Cc1ccc(Br)cc1`, the melting point was in the range of 82 to 84 °C.

`O=C(NNc1ccc(NC(=S)Nc2ccc(NNC(=O)c3ccccc3)cc2)cc1)c1ccccc1` returned a melting point of 185 to 187 °C. As for `COC(=O)c1cc(Cl)c(NC(C)=O)cc1OC1CCOC1=O` (configuration not stated), the melting point fell in the range of 118 to 119 °C. The result for `N#CC1=C(C2CCCCC2)Nc2n[nH]cc2C1c1cccc2nonc12` (configuration not stated) reads 210 °C. For `CC1(C)Oc2ccc(C#N)cc2C(Oc2ccncn2)C1(C)O` (configuration not stated), the melting point lay within 103 to 105 °C. The molecule `C#Cc1ccc(C(=O)NCC(N)C(c2ccccc2)(c2ccccc2)c2ccccc2)cc1` (configuration not stated) showed a melting point of 50 to 51 °C. For `CC(O)(C(=O)Nc1cc(S(=O)(=O)c2ccccc2)ccc1Cl)C(F)(F)F` (configuration not stated) the value was 79 to 80 °C; for `CN(Cc1ccccc1)S(=O)(=O)CC#N`, 68 to 70 °C. `Cc1ncc([N+](=O)[O-])n1C(=O)Nc1ccccc1` came in with a melting point of 218 to 220 °C.

Regarding `CCOC(=O)N1CCc2[nH]cc3c(=O)n(-c4ccc(Cl)cc4)nc-3c2C1`, the melting point lay within 357 to 359 °C.

With `CCc1noc(-c2cn(-c3ccccc3OCc3ccc(Cl)cc3)cn2)n1`, the melting point was in the range of 88 to 89 °C. For `CCc1nc2cc(C(=O)O)c(Cl)cc2n1-c1ccc(CCNC(=O)NS(=O)(=O)c2ccc(C)cc2)cc1` the value was 145 to 150 °C. In turn, `COc1cc2c3c(c1)nc(SCc1ccc4ccccc4n1)n3CCC2` showed a melting point of 89 to 91 °C. For `c1ccc(N2CC3CCC(C2)O3)cc1` the value was 84 to 85 °C; for `CS(=O)(=O)O[C@@H]1CCc2c(F)cc(F)cc2C1`, 79 to 80 °C.

Molecule `Cn1ncc2c1C(=O)C(Cl)=C(NC1CC1)C2=O` gave a melting point of 175 to 176 °C.

For `COc1ccc(COc2cccc(N)c2N)cc1`, the melting point amounted to 127 °C.

For `O=C(OC1N=C(c2ccccc2)c2ccccc2NC1=O)c1cc2ccccc2[nH]1` (racemic), the melting point was 271 to 273 °C.

The molecule `C=C(C)CN1C(=O)CC(=O)N(c2ccccc2)c2cc(Cl)ccc21` had a melting point of 149 to 151 °C.

Molecule `CC(=O)Oc1c(C)cc(NC(=O)NC2=C(c3ccccc3)c3ccccc3CS2)cc1C` gave a melting point of 206 to 208 °C.

In turn, `CCN(CC)C(=O)c1ccc(C(c2cccc(O)c2)N2CC(C)N(CC#N)CC2C)cc1` (configuration not stated) gave a melting point of 190 to 192 °C.

Molecule `O=[N+]([O-])c1cnc2ccc(F)cc2c1Nc1ccccc1F` displayed a melting point of 161 to 162 °C. For `CN1C(=S)[C@H](NC(=O)OCc2ccccc2)N=C(c2ccccc2)c2ccccc21` the value was 128 to 131 °C; for `O=C(O)CSC1c2ccccc2COc2ccc(OCc3ccc4ccccc4n3)cc21` (configuration not stated), 174 to 179 °C. For `O=C(N[C@H]1CC[C@H](CCN2CCC(c3cccc4c3CCO4)CC2)CC1)c1ccc2ncccc2c1` the value was 238 °C. As for `CCCCOC(=O)CCC(C)(c1ccc(O)c(C(C)(C)C)c1)c1ccc(O)c(C(C)(C)C)c1`, the melting point was 123 °C. For `Cn1ncc(C(=O)N2C[C@H]3C[C@@H]2CO3)c1C(=O)Nc1ccn2nc(-c3cccnc3)nc2c1` the value was 272 to 273 °C; for `COC(=O)C1CN(C)CCC1c1ccc(Cl)c(Cl)c1` (configuration not stated), 70 to 75 °C; for `O=C(O)c1ccc(OCc2ccccc2)c(C23CC4CC(CC(C4)C2)C3)c1`, 251 to 253 °C. For `O=C(Nc1ccc(OCc2ccncc2)c2ccccc12)c1cc(F)cc(N2CCCCC2)c1` the value was 69 to 71 °C; for `Cc1c(C)c2c(c(C)c1O)CCC(C)(C#Cc1cccs1)O2` (configuration not stated), 133 to 135 °C; for `CC(C#N)(Cn1ncc2cc([N+](=O)[O-])ccc21)NC(=O)c1ccc(OC(F)(F)F)cc1` (configuration not stated), 203 to 205 °C. For `O=C(O)CCc1cccc(OCc2nc(-c3ccccc3)c(-c3ccccc3)o2)c1` the value was 118 to 120 °C; for `CC(C)Oc1cc(CCCOc2ncccc2CC(=O)O)n(Cc2ccc(F)cc2Cl)n1`, 90 to 91 °C; for `COc1cc2c(cc1O)CN(C(C)=O)CC2`, 142 to 144 °C.

Take `COC(=O)C1C(=O)Nc2cccc(C(F)(F)F)c2CC1c1ccc(OC)cc1` (configuration not stated): the melting point was 214 to 216 °C. For `Cn1cc(-c2ccc3nnc(C(F)(F)c4ccc5ncccc5c4)n3n2)cn1` the value was 200 °C; for `O=c1[nH]c2ccc(CCN3CCN(c4ccc5ncccc5c4)CC3)cc2o1`, 200 °C; for `Nc1nc(Cl)cc(Oc2ccc3c(c2)OCCN3C(=O)OCc2ccccc2)n1`, 161 to 163 °C.

For the molecule `COC(=O)C(O)c1ccccc1[N+](=O)[O-]` (configuration not stated), the melting point was in the range of 69 to 71 °C. As to `COC(=O)c1c(-c2ccc(C)cc2)ccc2ccccc12`, the melting point was in the range of 109 to 111 °C. With `C[C@@H]1C[C@H](C)CN(C(=O)[C@@H]2Cc3ccccc3N2c2cccnn2)C1`, the melting point is 159 to 160 °C.

Consider `CCC(CC)(CC(=O)Nc1cccc(SCc2ccc3cc(F)ccc3n2)c1)C(=O)O`, for which the melting point fell in the range of 117 to 120 °C. For `O=[N+]([O-])c1cn2c(n1)OC[C@@H](OCc1ncc(Br)cn1)C2` the value was more than 290 °C; for `Cc1cc(C)c2cccc(OCc3c(Cl)ccc(S(=O)(=O)N4CCC[C@H]4C(=O)N4CCN(C(=O)c5cccc(C=NN)c5)CC4)c3Cl)c2n1`, 158 °C. For `O=C(O)c1cccc(CNc2n[nH]c3ncnc(Nc4cccc(Cl)c4)c23)c1` the value was 294 to 296 °C; for `COc1cc(-c2ccc(C#N)cc2)cc(-c2nc3cc(C#N)ccc3[nH]2)c1O`, 334 to 335 °C; for `CCOP(=O)(OCC)N1CC2(C(=O)OC)COc3cc(C(F)(F)F)ccc3C2=N1` (configuration not stated), 85 to 86 °C. The result for `O=P(O)(O)C(O)(CCc1ccc(Cl)c(Cl)c1)P(=O)(O)O` reads 187 °C; that for `O=C(O)C=CC(=O)N(CC1CO1)NCC1CO1` (configuration not stated), 58 °C. `O=C(O)c1cn(C2COC2)c2cc(N3CCNCC3)c(F)c(O)c2c1=O` yielded a melting point of 266 to 273 °C.

On to `CSc1nc(SC)nc(-n2c(C)nc3ccccc32)n1`, for which the melting point lay within 176 to 179 °C.

With `Cc1c(COc2cccc3c2CN(C2CCC(=O)NC2=O)C3=O)oc2ccccc12` (configuration not stated), the melting point fell in the range of 210 to 212 °C. The result for `COC(=O)C(C)(C)CCCOc1cc(C)c(NC(C)=O)cc1C` reads 99 to 100 °C; that for `COc1cc(C(O)c2ccnn2C)c(Cl)c(Cl)c1OC` (configuration not stated), 149 to 154 °C; that for `N#Cc1c(OCCO)cccc1[N+](=O)[O-]`, 140 to 142 °C. Molecule `CN(C)CC1(C2(O)CCCCC2)Cc2cc3c(cc21)N(S(C)(=O)=O)CC3` (configuration not stated) had a melting point of 156 to 158 °C.

On to `COc1ccccc1NC(=O)Nc1ccc(C2CCN(C(=O)Nc3ccc(OCC(O)CO)cc3Cl)CC2)cc1` (configuration not stated), for which the melting point was 158 to 161 °C. For `COc1cc2cc3c(Nc4ccc(OCc5ccccc5)c(Cl)c4)c(C#N)cnc3cc2cc1OCCCl` the value was 182 to 185 °C; for `Cc1nc2n(c(=O)c1CCN1CCC(C(=NO)c3ccc(F)cc3F)CC1)CCCC2`, 180 to 183 °C; for `CCOc1cccc(CC(=O)O)c1OCCCc1cn(-c2ccc(C(F)(F)F)cn2)nc1C1CCCCC1`, 156 to 157 °C. The result for `C=C(C)C(=O)Oc1ccc(S(=O)(=O)NC)cc1` reads 106 to 107 °C; that for `O=C(O)CCS(=O)(=O)O`, 74.6 °C. For `CC(=O)SCC(Cc1ccccc1)C(=O)NC(C)(C)C(=O)OCc1ccccc1` (configuration not stated) the value was 83 to 85 °C.

In turn, `Cc1ccc(N2CCN(CCCc3ccc(C4CCC(=O)N4)cc3)CC2)cc1` (configuration not stated) gave a melting point of 143 to 145 °C. The result for `O=Cc1c2ccc(F)cc2c(C=O)c2ccc(F)cc12` reads 240 to 242 °C; that for `ON=C(CCC(CN1CCN(c2ccccn2)CC1)C(=NO)c1ccccc1)c1ccccc1` (configuration not stated), 75 to 78 °C; that for `COc1cc(OC)nc(OC2C(=O)OCC2(C)C)n1` (configuration not stated), 139 to 142 °C. Regarding `COCCOC(=O)CCc1cc(C(C)(C)C)c(O)c(C(C)(C)C)c1`, the melting point was 62 to 64 °C.
